From publication PMC5458644 (Neoplasia (New York, N.Y.), 2017)

Legend:
A2aR = details: alone or in combination with anti-PD-1 and anti-CTLA4; cited from earlier work
[1] = Secondary pharmacology panel; details: 10 μM initial screen; apart from adenosine receptors; data not shown
B16-CD73+ tumor cells = test: Experimental lung metastasis model, B16-CD73+ cells i.v.; assay type: in vivo, C57Bl/6 mice; details: 15 mg/kg/day oral gavage, daily for 15 days, vs vehicle, P < .05
MCA205 tumor cells = test: Experimental lung metastasis model, MCA205 cells i.v.; assay type: in vivo, C57Bl/6 mice; details: 30 mg/kg/day oral gavage, daily for 7 days, vs vehicle, P < .05
[2] = test system: human tumor-infiltrating lymphocytes (TILs); test: Ex vivo assay of disaggregated resected NSCLC tumors, γ-interferon ELISA; assay type: cell-based; details: tumors of Figure 5 A and B; 3 days culture

Compound	tumor burden in vivo (A2aR)	effect in secondary pharmacology profile [1]	tumor burden (lung nodules, lung weight) (B16-CD73+ tumor cells)	tumor burden (lung nodules, lung weight) (MCA205 tumor cells)	TIL function (γ-interferon), combination of PBF-509 with anti-PD-L1 [2]
Nc1nc(NCCc2ccc(O)cc2)nc2nc(-c3ccco3)nn12 [ZM241385]	decreased tumor burden	–	–	–	–
Nc1nc2c(cnn2CCc2ccccc2)c2nc(-c3ccco3)nn12 [SCH58261]	decreased tumor burden	–	–	–	–
Nc1nc(-n2cccn2)nc(-n2cccn2)c1Br [PBF-509]	–	did not show any relevant effect	significantly reduced tumor burden	significantly reduced tumor burden	improved TIL function in an additive fashion
